Values of other authors in PMC2686615 (International Immunology, 2009).

What was measured:
HLA-DQ transgenic mice = settings: immunization with peptides; cited from earlier work
NOD.DQ8 mice = settings: oral response to gliadin, 26 peptides tested; cited from earlier work

For ENVVVKVYTV [allergen P2 102–110], the T cell response (HLA-DQ transgenic mice) is given as “elicited T cell responses”.

For QSTYQLLQE [gliadin 147–155], the T cell response (NOD.DQ8 mice) is listed as “negative”.

In the case of VVTVKVMGD [allergen P2 105–113], the T cell response (HLA-DQ transgenic mice) is listed as “failed to stimulate T cell responses”.
